According to patent US20110251220A1, “Pharmaceutical compositions comprising gamma secretase modulators” (priority 2008, published 2011):

What was measured:
U266 cells = assay: Proliferation assay (CellTiter-Glo), U266 (Notch1 negative control); type: cell-based, human; conditions: U266 (lacking Notch1), 48 h treatment
Description: (§1) Human MM cell lines used were as follows: NCI-H929, OPM-2, LP-1, RPMI-8226, U266 (DSMZ, Braunschweig, Germany). Cell lines were cultured in RPMI 1640 medium (Biochrom, Berlin, Germany) supplemented with 10% heat-inactivated fetal calf serum (FCS, Gibco, Karlsruhe, Germany), 1 mM sodium pyruvate and 100 units/ml penicillin and 100 μg/ml streptomycin (Gibco). Human osteoclasts were obtained as described in the reference of Zavrski I, Krebbel H, Wildemann B, et al. Proteasome inhibitors abrogate osteoclast differentiation and osteoclast function. Biochem Biophys Res Commun. 2005; 333:200-205. Briefly, peripheral blood mononuclear cells (PBMC) were isolated from whole blood of healthy volunteers, using a Ficoll-Hypaque density gradient. The adherent fraction of the isolated mononuclear cells was cultured for 21 days in MEM medium (Sigma-Aldrich Chemie, Taufkirchen, Germany) supplemented with 10% FCS, 100 U/ml penicillin, 100 μg/ml streptomycin, 50 ng/ml M-CSF, and 25 ng/ml RANKL (osteoclastogenic medium), before coculture experiments and treatment with the inventive compounds started. […]
For assaying proliferation/viability of cells CellTiter-Glo Luminescent Cell Viability Assay (Promega, Mannheim, Germany) was used. In this assay the number of viable cells at a given time point is determined by quantification of ATP present, which serves as a measure of metabolically active cells. […]

OPM-2 cells = assay: Cell cycle analysis (propidium iodide), sub-G1 fraction, OPM-2; type: cell-based, human; conditions: OPM-2, after 72 h
Description: The compound according to example 1, hereinafter referred to as GSI15, (compound RH02015SC, Maybridge, Acros Organics, Geel, Belgium) was freshly dissolved as 26 mM stock solution in Dimethylsulfoxide (DMSO). Multiple myeloma therapeutics used were melphalan (marketed as Alkeran®, GlaxoSmithKline, Munich, Germany) and bortezomib (marketed as Velcade®, Janssen-Cilag, Neuss, Germany). Melphalan was freshly dissolved at 10 mg/ml in 0.9% NaCl-solution. Bortezomib was freshly dissolved at 100 ng/ml in 0.9% NaCl solution. Gamma Secretase Inhibitor (GSI) treatment for apoptosis assessment by AnnexinV/PI staining, cell cycle analysis and coculture experiments was performed in 6-well plates. GSI15 stock solution was added directly to the cell suspension. GSI treatment for assaying proliferation was performed in 96-well plates. […]
(§2) For cell cycle analysis 2×10^5 cells were spun down, medium was aspirated and cells washed with PBS. […] After 10 minutes incubation in the dark at room temperature, cells were analyzed by flow cytometry. The amount of apoptotic cells was determined by AnnexinV/propidium iodide staining using Human AnnexinV-FITC Kit (Bender Medsystems, Vienna, Austria), according to manufacturer's protocol. […] Cells were then spun down again, resuspended in binding buffer containing PI and analyzed by flow cytometry.

[1] = tested on: OPM-2 cocultured with OCL; assay: OPM-2/OCL coculture, apoptosis of OPM-2 by AnnexinV-FITC/PI staining; type: cell-based, human; conditions: 60 μM GSI15, 48 h
Description: as §1, with “gradient.” for “gradient. The adherent fraction of the isolated mononuclear cells was cultured for 21 days in MEM medium (Sigma-Aldrich Chemie, Taufkirchen, Germany) supplemented with 10% FCS, 100 U/ml penicillin, 100 μg/ml streptomycin, 50 ng/ml M-CSF, and 25 ng/ml RANKL (osteoclastogenic medium), before coculture experiments and treatment with the inventive compounds started.”
as §2

[2] = Physiological compatibility, parenteral administration in mice; conditions: in vivo, other: parenteral, mouse
Description: The compound according to example 1 was tested for its physiological compatibility via parenteral administration in mice. The LD50 (parenteral, mouse) is 800 mg/kg. Accordingly compound 1 can be considered to be physiologically compatible.

**Q.** What does the source list for `CC(C)c1ccc(S(=O)(=O)Nc2cccnc2Oc2ccc(Cl)cc2)cc1` [Example 1, N-(2-(4-chlorophenoxy)pyridin-3-yl)-4-isopropylbenzenesulfonamide]?
**A.** proliferation (U266 cells): almost not affected; sub-G1 fraction (OPM-2 cells): increase in the sub-G1 fraction; overall amount of apoptotic cells [1]: 83%; LD50 [2]: 800 mg/kg
